Tests used:
[1] = daily doses higher than 1 mg/day; cited from earlier work
[2] = Cholecalciferol dosing, calciuria and hypercalcemia in renal patients; assay type: in vivo, human
Description: The inventor has discovered that these therapeutic approaches are obsolete today because of the risk of prolonged hypercalcemia resulting from the long half-life of 25-(OH)-D3 in renal patients. […] Likewise, the inventor has discovered that repletion of vitamin D to achieve a plasma 25-(OH)-D concentration in the 80th percentile or higher of normal clinical values prevents renal osteodystrophy, Looser zones, and sub-periosteal resorption, despite the persistence of hypocalcemia, hyperphosphatemia and metabolic acidosis, or the use of calcium-aluminum free phosphate binders such as sevelamer salts. Therefore, a composition of the invention comprises 375 to 425 IU of vitamin D and a preferred embodiment of a composition of the invention provides 400 IU of vitamin D.

[3] = cited from earlier work
[4] = 43 maintenance hemodialysis patients, low flux/low efficiency dialyzers; 200 mg post-dialysis 2-3 times per week (400-600 mg weekly) orally; cited from earlier work
[5] = blood flow of 200-300 mL/min; cited from earlier work
[6] = up to 200 mg/day; cited from earlier work
[7] = daily oral 25 mg elemental zinc, 6 months; from 81±8 mcg/dL; normal controls 111±10 μg/dL; p<0.005; cited from earlier work
[8] = zinc supplementation, dialysis patients; cited from earlier work
[9] = in vivo; cited from earlier work
[10] = 400 μg/L in dialysate, 6 months; cited from earlier work
[11] = cited from earlier work; remark: listed apart in the source
[12] = 15 days of treatment with 300 mg/day; hemodialysis patients; cited from earlier work
[13] = single oral dose of 1200 IU; cited from earlier work
[14] = Daily vitamin K over several years in the general population; assay type: in vivo, human; conditions: 1 mg dose each day over several years
Description: The inventor has discovered that the 10 mcg dose of vitamin K that is provided in conventional multivitamin preparations is too low. […] A composition of their invention comprises vitamin K in doses that are appropriate for subjects with renal disease and provides 25 to 1000 mcg of vitamin K, and a preferred embodiment of a composition of the invention provides 50 mcg of vitamin K.

For `Nc1nc2ncc(CNc3ccc(C(=O)N[C@@H](CCC(=O)O)C(=O)O)cc3)nc2c(=O)[nH]1` [Folic acid], the “renal patients in whom plasma homocysteine levels are lowered” value [1] is listed as “up to 30%”.
With `C=C1CC[C@H](O)C/C1=C/C=C1\CCC[C@]2(C)[C@@H]([C@H](C)CCCC(C)C)CC[C@@H]12` [cholecalciferol] the calciuria and hypercalcemia ([2]; dose of 800 IU or 20 mcg, pre-dialysis patients) was “does not cause an increase in calciuria in pre-dialysis patients nor hypercalcemia” and the calciuria and hypercalcemia ([2]; doses in excess of 2400 IU or 60 mcg/day) was “these complications are seen”.
In the case of `[Se]` [selenium], the “APACHE III score versus untreated group” value ([3]; SIRS patients) is given as “significantly lower”, the “time to normalization of serum selenium levels and GSH-Px activity” value ([3]; Se treated SIRS patients) is given as at most 3 days and the overall mortality ([3]; Se+ group, 52% in the Se− group) is given as 33.5%.
For `O=C1O[C@H]([C@@H](O)CO)C(O)=C1O` [vitamin C, ascorbic acid], the “patients with decreased plasma vitamin C levels / serum levels not maintained despite supplement” value [4] is given as 27%, the “clearance of vitamin C (ascorbate) during hemodialysis” value [5] is given as “about 100 mL/min” and the bioavailability [6] is given as about 100%.
For `[Zn]` [zinc], the “plasma Zn levels after treatment” value [7] is listed as 110 ± 14 µg/dL, the “patients with plasma testosterone levels increased into the normal range” value [8] is listed as 50% and the “plasma level at which zinc toxicity is seen” value [9] is listed as “around 700 mcg/dL”. The “intracellular content of ATP in lymphocytes” value [10] was “increased intracellular content of ATP in lymphocytes” and the serum zinc level [10] was “significant increase in serum zinc level”.
In the case of Fe(III) hydroxide sucrose complex, the “hemodialysis patients with bleomycin-detectable free iron in the circulation” value ([11]; 100 mg intravenously) is listed as 8 of the 10 and the “plasma total peroxide and malondialdehyde concentrations” value ([11]; within ten minutes following infusion of 100 mg) is listed as “rise in plasma total peroxide and malondialdehyde concentrations”.
In the case of vitamin E, the “platelet vitamin E levels” value [12] is listed as “increased to the normal range” and the “oxidative stress induced by intravenous iron” value [13] is listed as “effective in attenuating the oxidative stress”.
In the case of vitamin K, the untoward effects [14] is reported as “no untoward effects”.

Reference: patent publication US8911798B2, “Multivitamin and mineral compositions for individuals having renal disease” (priority 2007, dated 2014)
